Measured values reported in patent publication US9206405B2, “Glycosyl hydrolase with beta-xylosidase and beta-glucosidase activities and uses thereof” (Institute of Materia Medica, Chinese Academy of Medical …, priority 2010, dated 2015).

Tests used:
LXYL-P1 (or P1) protein = experiment: Specificity test on different glycoside (chromogenic) substrates hydrolysis by purified LXYL-P1; format: biochemical, Lentinula edodes M95.33; settings: 20 min; for Relative activity (% control): control = PNP-Xyl; for Relative activity (% control) / OD405 value: 5 mM substrate, pH 5.0, 50° C., purified P1; for OD405 value: release of p-nitrophenol at 405 nm; for hydrolysis of chromogenic substrate by P1 protein (in words): 50° C., pH 5.0
Procedure: In addition to the β-xylosidase activity, especially the activity of hydrolyzing 7-xylosyltaxanes, the specificity of the LXYL-P1 (or P1) on other glycoside substrates was also tested by employing four chromogenic substrates: p-nitrophenyl-β-D-glucopyranoside (PNP-Glc), p-nitrophenyl-β-D-galactopyranoside (PNP-Gal), p-nitrophenyl-α-L-arabinopyrano side (PNP-Ara), and p-Nitrophenyl-β-D-xylopyranoside (PNP-Xyl, serving as a control). Each of the chromogenic substrates was prepared in 50 mM acetate buffer to obtain 5 mM solution (pH 5.0).
To the purified P1 protein diluent (25 μl) obtained in example 1, 100 μl of each chromogenic substrate was added. The reaction was performed at 50° C. for 20 min and stopped with 2 ml saturated solution of sodium borate. Release of p-nitrophenol (absorbance value) was measured at 405 nm.

[1] = test system: recombinant strain GS115-9K-P1-2; experiment: β-xylosidase activity of the recombinant yeast strain on PNP-Xyl; format: cell-based, Pichia pastoris
Procedure: FIG. 4: Comparison of the recombinant strains GS115-9K-P1-2 and GS115-9K (control) on β-xylosidase activity.
BMGY medium (contains per liter: 10.00 g yeast extract, 20.00 g peptone, 100 mM potassium phosphate buffer, pH 6.0, 10 ml glycerol) and BMMY medium (10 ml glycerol in BMGY medium was replaced with 10 ml methanol as the carbon source) were used as the seed culture and fermentation media respectively for the recombinant yeast. The resistant strain obtained by screening was inoculated into 10 ml seed culture medium and incubated at 30° C., 220 rpm for 18 h. The cultures were washed 2 times by centrifugation and the cell pellet was transferred into 50 ml fermentation medium. Cells were cultured at 30° C., 220 rpm, and 1% methanol was added every 24 h for induction of expression of the recombinant protein. Meanwhile the enzyme activity of the recombinant strain was detected regularly. […]

[2] = test system: recombinant yeast GS115-3.5K-P1-2; experiment: Hydrolysis of XDB by the recombinant yeast; format: cell-based, Pichia pastoris; settings: 8 mg XDB/ml, 16 mg dry cells/ml, 24 h, 30-55° C., HPLC
Procedure: The strain was the same as that in Example 6 and the substrate was 7-xylosyl-10-deacetylbaccatin III (XDB). 1.5 ml cell reaction solution contained 16 mg dry cells per milliliter and 8 mg XDB per milliliter. The mixture was incubated in a water shaking bath for 24 h at 30˜55° C.

[3] = test system: recombinant yeast GS115-3.5K-P1-2; experiment: Hydrolysis of 7-xylosyltaxane mixtures by the recombinant yeast; format: cell-based, Pichia pastoris; settings: 7-xylosyltaxane mixtures about 8 mg/ml, 24 h, 30-55° C., HPLC
Description: The recombinant yeast GS115-3.5K-P1-2 (transformant of the recombinant expression plasmid pPIC3.5K-P1-2) obtained in Example 4 was applied in the following bioconversion reaction, wherein the substrates to be converted were 7-xylosyltaxane mixtures, the main components of which included 62.12% of 7-xylosyl-10-deacetyltaxol, 12.75% of 7-xylosyl-10-deacetylcephalomannine, 17.04% of 7-xylosyl-10-deacetyltaxol C, and 8.09% of other components.
The method for culturing the recombinant strain was the same as in Example 5. 16 ml 7-xylosyltaxane mixtures (at a concentration of 100 mg/ml) were added to 200 ml recombinant strain reaction solution with the final concentration of the 7-xylosyltaxane mixtures being about 8 mg/ml (supersaturated). The recombinant yeast introduced with the null vector was taken as the negative control. The solution was mixed by magnetic stirring for 24 h at 30˜55° C. […] The yields of the three main products: 10-deacetyltaxol (DT): 3.27 mg/ml; 10-deacetylcephalomannine (DC): 0.74 mg/ml; and 10-deacetyltaxol C (DTC): 0.92 mg/ml.

[4] = test system: Moraxella sp. (ATCC55475); settings: XDT 0.25 mg/ml, wet cells 91.5 mg/ml, 21 h, 28° C.; cited from earlier work
LXYL-P2 (or P2) = experiment: XDT conversion by Phenyl Sepharose peak LXYL-P2, thin layer chromatography; format: biochemical, Lentinula edodes M95.33; settings: TLC, FIG. 1B
Description: (§1) FIG. 1: Phenyl Sepharose hydrophobic column chromatography of the β-xylosidase-β-glucosidase from the protein extract of the fungus M95.33 (A), and thin layer chromatography (TLC) of XDT conversion (B). • A: P1. active elution peak of LXYL-P1; P2. active elution peak of LXYL-P2. […] XDT (control); 2. DT (control); 3. XDT bioconversion by LXYL-P1; 4. XDT bioconversion by LXYL-P2.
(§2) The fraction eluted in the above step was applied to a Phenyl Sepharose hydrophobic column (1.6 cm×20 cm) equilibrated with 50 mM Tris-HCl buffer (pH 8.0) containing 1 M […]. Elution was performed with Tris-HCl buffer (50 mM, pH8.0) having a linear gradient of 1.0˜0 M (NH4)2SO4 (at a flow rate of 2 ml/min). Fractions having enzymatic activity were collected and dialyzed with Tris-HCl buffer (50 mM, pH8.0).
(§3) Within penal B, 1 was XDT control; 2 was DT control; 3 was XDT conversion by P1; and 4 was XDT conversion by P2.

LXYL-P1 (or P1) = experiment: XDT conversion by Phenyl Sepharose peak LXYL-P1, thin layer chromatography; format: biochemical, Lentinula edodes M95.33; settings: TLC, FIG. 1B
Description: as §1, §2, §3

[5] = test system: Leifsonia shinshuensis DICP 16; settings: 1 mg XDT in 2 ml cell suspension, 21 h, 30° C.; cited from earlier work
[6] = test system: recombinant yeast GS115-9K-P1-2; experiment: Hydrolysis of 7-xylosyl-10-deacetyltaxol (XDT) by the recombinant yeast; format: cell-based, Pichia pastoris; settings: XDT 0.625 mg/ml, 12 h, 30-55° C.
Procedure: The recombinant yeast GS115-9K-P1-2 (transformant of the recombinant expression plasmid pPIC-9K-P1-2) obtained in example 4 was cultured and induced for 5 days in the manner of Example 4. Cells were centrifuged, harvested and washed, and then was, directly or after lyophilization, suspended with 50 mM acetate buffer or phosphate buffer (65 mg wet cells/ml or 16 mg dry cells/ml, pH 3.5˜7.5), and used as the hydrolytic reaction solution. To 20 ml of the cell reaction solution, 0.5 ml solution of 7-xylosyl-10-deacetyltaxol (XDT) was added with the final concentration of XDT being 0.625 mg/ml. The resultant was incubated in a water shaking bath for 12 h at 30˜55° C.
Extraction was performed with ethyl acetate after the reaction was completed.

In the case of `O=[N+]([O-])c1ccc(O[C@@H]2OC[C@H](O)[C@H](O)[C@H]2O)cc1` [PNP-Ara, p-nitrophenyl-α-L-arabinopyranoside], the “Relative activity (% control)” value (LXYL-P1 (or P1) protein) is reported as 0 % control and the OD405 value (LXYL-P1 (or P1) protein) is reported as 0.000.

In the case of `O=[N+]([O-])c1ccc(O[C@@H]2O[C@H](CO)[C@H](O)[C@H](O)[C@H]2O)cc1` [PNP-Gal, p-nitrophenyl-β-D-galactopyranoside], the “Relative activity (% control)” value (LXYL-P1 (or P1) protein) is reported as 0 % control and the OD405 value (LXYL-P1 (or P1) protein) is reported as 0.000.

With `O=[N+]([O-])c1ccc(O[C@@H]2O[C@H](CO)[C@@H](O)[C@H](O)[C@H]2O)cc1` [PNP-Glc, p-nitrophenyl-β-D-glucopyranoside] the “hydrolysis of chromogenic substrate by P1 protein (in words)” value (LXYL-P1 (or P1) protein) was “could hydrolyze”, the “Relative activity (% control)” value (LXYL-P1 (or P1) protein) was 217 % control and the OD405 value (LXYL-P1 (or P1) protein) was 1.615.

With `O=[N+]([O-])c1ccc(O[C@@H]2OC[C@@H](O)[C@H](O)[C@H]2O)cc1` [PNP-Xyl, p-nitrophenyl-β-D-xylopyranoside] the “hydrolysis of chromogenic substrate by P1 protein (in words)” value (LXYL-P1 (or P1) protein) was “could hydrolyze”, the “Relative activity (% control)” value (LXYL-P1 (or P1) protein) was 100 % control and the OD405 value (LXYL-P1 (or P1) protein) was 0.745. The “ability of recombinant strain to hydrolyze the substrate” value ([1]; cell suspension, 5 mM PNP-Xyl, 20 min, 30-55° C.) was “has the ability to hydrolyze” and the “enzymatic activity in supernatant of fermentation broth of recombinant strain” value ([1]; supernatant of the fermentation broth) was “no obvious enzymatic activity was detected”.

Molecule `CC(=O)O[C@@]12CO[C@@H]1C[C@H](O[C@@H]1OC[C@@H](O)[C@H](O)[C@H]1O)[C@@]1(C)C(=O)[C@H](O)C3=C(C)[C@@H](O)C[C@@](O)([C@@H](OC(=O)c4ccccc4)[C@H]21)C3(C)C` [XDB, 7-Xylosyl-10-deacetylbaccatin III] has a conversion ratio [2] of 86.54%.

Molecule `CC=C(C)C(=O)NC(c1ccccc1)C(O)C(=O)OC1CC2(O)C(OC(=O)c3ccccc3)C3C4(OC(C)=O)COC4CC(OC4OCC(O)C(O)C4O)C3(C)C(=O)C(O)C(=C1C)C2(C)C` (stereo not shown) [XDC, 7-Xylosyl-10-deacetylcephalomannine] has a conversion ratio [3] of 93.60%.

In the case of `CC(=O)O[C@@]12CO[C@@H]1C[C@H](O[C@@H]1OC[C@@H](O)[C@H](O)[C@H]1O)[C@@]1(C)C(=O)[C@H](O)C3=C(C)[C@@H](OC(=O)[C@H](O)[C@@H](NC(=O)c4ccccc4)c4ccccc4)C[C@@](O)([C@@H](OC(=O)c4ccccc4)[C@H]21)C3(C)C` [XDT, 7-Xylosyl-10-deacetyltaxol], the “XDT remaining after reaction (HPLC)” value [4] is listed as “No XDT was found to be remaining”, the “hydrolysis of XDT into DT by P2” value (LXYL-P2 (or P2)) is listed as “could hydrolyze” and the “hydrolysis of XDT into DT by P1” value (LXYL-P1 (or P1)) is listed as “could hydrolyze”. For the same molecule, the conversion ratio [3] was 92.45%, the “XDT remaining after reaction (HPLC)” value [5] was “No XDT was found to be remaining” and the conversion ratio ([6]; HPLC) was 98.80%. The “substrate transformation by TLC” value ([6]; TLC) was “completely transformed”.

In the case of `CCCCCC(=O)N[C@@H](c1ccccc1)[C@@H](O)C(=O)O[C@H]1C[C@@]2(O)[C@@H](OC(=O)c3ccccc3)[C@@H]3[C@]4(OC(C)=O)CO[C@@H]4C[C@H](O[C@@H]4OC[C@@H](O)[C@H](O)[C@H]4O)[C@@]3(C)C(=O)[C@H](O)C(=C1C)C2(C)C` [XDTC, 7-Xylosyl-10-deacetyltaxol C], the conversion ratio [3] is reported as 92.00%.
